Laboratory results taken from US20210252015A1, “CERTAIN (2S)-N-[(1S)-1-CYANO-2-PHENYLETHYL]-1,4-OXAZEPANE-2-CARBOXAMIDES FOR TREATING INFLAMMATORY BOWEL DISEASE” (Insmed Incorporated, priority 2018, published 2021).

Assays:
[1] = test system: DSS-induced colitis in C57BL/6 mice; assay: DSS-induced colitis murine study, Example 1B (endoscopy, stool consistency, body weight); assay type: in vivo
From the text: Mice: Ninety-five (95) male C57BL/6 mice with an average starting body weight (SEM) of 20.6 g (+0.16 g) were obtained from Charles River Laboratories (Wilmington, Mass.). Animals were acclimatized prior to the study. During this period, the animals were observed daily in order to reject any that presented in poor condition. Animals were fed with 5053 sterile rodent diet and water was provided ad libitum.
Solutions: The INS1007 Solution, Anti-p40 mAb solution and DSS Induction Solution were prepared and stored as described in Example 1A. […]
All animals were weighed daily and assessed visually for the presence of diarrhea and/or bloody stool at the time of dosing. […] Colitis severity was scored using the scale described in Example 1A. Stool consistency was scored during endoscopy using the parameters defined in Table 2. […]
Animals underwent endoscopy on Days 10 and 14, in order to assess colonic inflammation. Colitis was scored visually on a five-point scale using the method described in Example 1A. Stool consistency was scored visually on a five-point scale using the method described in Example 1A. […]
To determine the statistical significance of overall differences in mean percent body weight change between groups, the area under the curve (AUC) was calculated using the trapezoidal rule transformation and is shown in the FIG. 9.

neutrophil elastase (NE) = assay: Bone marrow neutrophil elastase (NE) activity in lysates from mice of Example 1A; assay type: in vivo, C57BL/6 mice; conditions: vs vehicle treated control group
Method: Following euthanasia, bone marrow (from both femurs and tibias) were collected, lysed, and then snap frozen. The frozen tissue was stored at −80° C.
Bone Marrow Neutrophil Activity: The ability of INS1007 to reduce neutrophil activation in DSS-induced colitis in C57BL/6 mice was evaluated. The neutrophil activity of bone marrow extracts taken from the euthanized mice of Example 1A was observed.
All animals from Example 1A had both femurs and tibias removed and bone marrow was aspirated out with ice-cold using Roswell Park Memorial Institute (RPMI) buffer. Cell pellets were collected after red blood cell lysis and wash with PBS. […]
For neutrophil elastase (NE) activity assay, bone marrow cell lysates were added to 96-well black plate and incubated for 15 minutes in the presence of DMSO or NE inhibitor (Abcam, Cat #ab142154). […] The resulting fluorescence was measured at 350 nm excitation and 450 nm emission in a kinetic mode by reading every 5 minutes for up to 3 hours at 37° C. The fluorescence was read using a BioTek Synergy plate reader. The reaction rate was calculated with the initial slopes of the linear range and a standard curve for the natural mouse elastase amounts were plotted against their slopes. The net NE activity (in the unit of natural mouse elastase amount) by subtracting the NE inhibitor control wells from non-inhibited well were calculated based on the standard curve.

[2] = test system: DSS-induced colitis in C57BL/6 mice; assay: DSS-induced colitis model, mean over animals of Examples 1A and 1B; assay type: in vivo; conditions: vs vehicle control
Method: Mean Endoscopy/Stool Consistency Scores and Mean Weight Change: The mean of the endoscopy and stool consistency scores from Days 10 and 14 observed from Examples 1A and 1B was determined to provide a mean endoscopy score and mean stool consistency score for Days 10 and 14 in the DSS-induced colitis model (i.e., mean that includes the animals from Examples 1A and 1B). FIGS. 11A and 12A show the Mean Endoscopy score. FIGS. 11B and 12B show the Mean Stool Consistency score.
The percent change in body weight on Day 14 from Examples 1A and 1B were averaged to provide mean percent body weight change for Day 14 in the DSS-induced colitis model (i.e., mean that includes the animals from Examples 1A and 1B).

SMILES: Cn1c(=O)oc2ccc(-c3ccc(C[C@@H](C#N)NC(=O)[C@@H]4CNCCCO4)cc3)cc21 [INS1007, (2S)—N-{(1S)-1-cyano-2-[4-(3-methyl-2-oxo-2,3-dihydro-1,3-benzoxazol-5-yl)phenyl]ethyl}-1,4-oxazepane-2-carboxamide]
- mean endoscopy score ([1]; Day 14, INS1007 0.3 mg/kg PO BID (Group 3), vs vehicle control (Group 2)): reduced
- body weight loss (AUC, calculated based on Day -7) ([1]; INS1007 1 mg/kg PO BID (Group 4), vs Group 2 (3% DSS+vehicle)): significantly decreased
- bone marrow neutrophil activity (NE activity) (neutrophil elastase (NE); INS1007 1 mg/kg PO BID): significantly reduced
- bone marrow neutrophil activity (NE activity) (neutrophil elastase (NE); INS1007 10 mg/kg PO BID): significantly reduced
- mean endoscopy score (Examples 1A and 1B) ([2]; Day 10, 0.3 mg/kg): significantly reduced
- mean stool consistency score (Examples 1A and 1B) ([2]; Day 10, 0.3 mg/kg): significantly reduced
- mean endoscopy score (Examples 1A and 1B) ([2]; Day 10, 3 mg/kg): significantly reduced
- average mean endoscopy score (Examples 1A and 1B) ([2]; Day 14, 0.3 mg/kg): significantly reduced
- average mean weight change (percent body weight change, Examples 1A and 1B) ([2]; Day 14, 0.3 mg/kg, lost less weight): significantly reduced
- stool consistency score (Examples 1A and 1B) ([2]; Day 14, 3 mg/kg): significantly reduced
